Test results: US7786054B2, “Biocide for well stimulation and treatment fluids” (Kemira Chemicals, Inc., priority 2006, dated 2010)
“Also recorded” adds a separate entry of the source.

How the values were obtained:
[1] = test system: sulfate reducing bacteria (SRB); test: Biocidal effectiveness on sulfate reducing bacteria in spiked frac pond water, serial dilution counts over 180 days with challenges; type: cell-based; conditions: for control of SRB in frac pond water (summary in words): up to 180 days contact time, challenges at 14, 28 and 129 days
Experimental: (§1) In this example, the biocidal effectiveness on sulfate reducing bacteria (SRB) and acid producing bacteria (AB) for biocide formulations containing CB Thione and WB Thione to Glut and THPS was examined.
(§2) A one gallon sample was separated from a five gallon sample of frac pond water for these studies. The frac pond water sample included SRB and AB. Ten mL of a 10^9 cfu/mL inoculum of SRB grown in anaerobic API broth containing an O2 scavenger and 10 mL of a 10^9 cfu/mL inoculum of AB grown in anaerobic phenol red (anPR) broth containing an O2 scavenger were added to the one gallon frac pond water sample, mixed well and allowed to incubate for a period of time sufficient to achieve a desired number of SRB and AB. All broth media for inoculum and serial dilution counts in this study was made at 4% salinity to match the salinity of the original frac pond water measured by total dissolved solids testing. To increase nutrient value and to emulate on-site friction reducing additives, a 30 weight % acrylic acid, 70% acrylamide copolymer was added to the inoculated gallon of frac pond water sample at 300 ppm and then referred to as the spiked frac pond water sample. The spiked sample was then divided into 99.0 g aliquots for testing the effect of various biocides at various concentrations on the SRB and AB over a 180 day contact time. One spiked aliquot would serve as the control sample to which no biocide would be added. Challenges were made to all aliquots using 0.5 mL of 10^8 SRB and 0.5 mL, of 10^8 AB at 14, 28, and 129 days contact time.
(§3) The biocides included a 20% water based Thione (WB Thione), a 24% caustic based Thione (CB Thione), a 25% Glut, and a 35% THPS. Stock biocide solutions of various concentrations were made from these biocides as described below.
(§4) The WB Thione stock solutions were prepared by adding 3.0 g of the biocide to 17.0 g of sterile distilled water to form an intermediate solution, followed by combining each intermediate solution with water in the accounts shown in Table 1 below to make the descending concentrations as shown in Table 1.
as §4, with “The CB” for “The WB”, “the amounts” for “the accounts”, “Table 2” for “Table 1”, “Table 2.” for “Table 1.”
(§5) The Glut stock solutions were prepared by adding 1.0 g biocide to 19.0 g of sterile distilled water to form an intermediate solution, followed by combining each intermediate solution with water in the amounts shown in Table 3 below to make the descending concentrations as shown in Table 3.
(§6) The THPS stock solutions were prepared by adding 1.0 g of the biocide to 19.0 g of sterile distilled water to form an intermediate solution, followed by combining each intermediate solution with water in the amounts shown in Table 4 below to make the descending concentrations as shown in Table 4.
(§7) Next, 1 g of each biocide stock solution was added to the appropriately labeled 99.0 g aliquot. Also, 1.0 g of sterile water was added to the control aliquot. The concentrations of the biocides present in each aliquot are provided below in Table 5.
(§8) The aliquots were then incubated at room temperature in the dark for the entire study, i.e., 6 months. […] Using sterile syringes, this testing was performed by serial diluting the aliquots into sealed 9.0 mL anaerobic API broth and anaerobic PR broth bottles, both media containing an O2 scavenger, in the appropriate labeled set of SRB bottles (6 for each aliquot) mid AB bottles (6 for each aliquot) until a color change occurred, indicating the log quantity of organisms present in each aliquot.

[2] = test system: acid producing bacteria (AB); test: Biocidal effectiveness on acid producing bacteria in spiked frac pond water, serial dilution counts over 180 days with challenges; type: cell-based; conditions: for control of AB in frac pond water (summary in words): up to 180 days contact time, challenges at 14, 28 and 129 days
Experimental: as §1, §2, §3, §4
as §4, with “The CB” for “The WB”, “the amounts” for “the accounts”, “Table 2” for “Table 1”, “Table 2.” for “Table 1.”
as §5, §6, §7, §8

[3] = Effect of biocide on the oxygen scavenger (oxygen reduction potential); type: physicochemical; conditions: 500 ppm biocide; 120 ppm SMBS; pH 6.4; FIG. 5
Experimental: In the following examples, an in-house constructed Inversion Loop was modified with a Grace M3500 viscometer for periodically measuring fluid viscosity as a function of time. The ORP apparatus included a HACH sensION pH meter with a combination ORP electrode. In Example 7, a friction loop apparatus was employed
To a beaker containing 500 milliliters of deionized water, a 120 ppm dose of sodium metabisulfite (SMBS) was added and the pH and oxygen reduction potential (ORP) were recorded. Once stabilized, phosphate buffer was added to increase the pH to 6.4 and the ORP recorded. Finally, the particular biocide tested was added at a concentration of 500 ppm. The ORP was recorded initially and after a period of 10 minutes.

[4] = 500 ppm as is (Glut, THPS), 7 Days
[5] = 500 ppm as is (Glut, THPS), 14 Days
[6] = 500 ppm as is (Glut, THPS), 21 Days
[7] = 500 ppm as is (Glut, THPS), 28 Days
[8] = 500 ppm as is (Glut, THPS), 35 Days
[9] = 500 ppm as is (Glut, THPS), 42 Days
[10] = 500 ppm as is (Glut, THPS), 58 Days
[11] = 500 ppm as is (Glut, THPS), 90 Days

O=CCCCC=O [Glut, glutaraldehyde]
Log 10 Anaerobic Sulfate Reducing Bacteria/mL ([1]; 50 ppm as is, 7 Days): 0 Log 10 Bacteria/mL | Log 10 Anaerobic Sulfate Reducing Bacteria/mL ([1]; 50 ppm as is, 14 Days): 0 Log 10 Bacteria/mL | Log 10 Anaerobic Sulfate Reducing Bacteria/mL ([1]; 50 ppm as is, 21 Days): 0 Log 10 Bacteria/mL | Log 10 Anaerobic Sulfate Reducing Bacteria/mL ([1]; 50 ppm as is, 28 Days): 0 Log 10 Bacteria/mL | Log 10 Anaerobic Sulfate Reducing Bacteria/mL ([1]; 50 ppm as is, 35 Days): ≧3 Log 10 Bacteria/mL | Log 10 Anaerobic Sulfate Reducing Bacteria/mL ([1]; 50 ppm as is, 42 Days): ≧6 Log 10 Bacteria/mL | Log 10 Anaerobic Sulfate Reducing Bacteria/mL ([1]; 50 ppm as is, 58 Days): ≧6 Log 10 Bacteria/mL | Log 10 Anaerobic Sulfate Reducing Bacteria/mL ([1]; 50 ppm as is, 90 Days): ≧5 Log 10 Bacteria/mL | Log 10 Anaerobic Sulfate Reducing Bacteria/mL ([1]; 100 ppm as is, 7 Days): 0 Log 10 Bacteria/mL | Log 10 Anaerobic Sulfate Reducing Bacteria/mL ([1]; 100 ppm as is, 14 Days): 0 Log 10 Bacteria/mL | Log 10 Anaerobic Sulfate Reducing Bacteria/mL ([1]; 100 ppm as is, 21 Days): 0 Log 10 Bacteria/mL | Log 10 Anaerobic Sulfate Reducing Bacteria/mL ([1]; 100 ppm as is, 28 Days): 0 Log 10 Bacteria/mL | Log 10 Anaerobic Sulfate Reducing Bacteria/mL ([1]; 100 ppm as is, 35 Days): ≧3 Log 10 Bacteria/mL | Log 10 Anaerobic Sulfate Reducing Bacteria/mL ([1]; 100 ppm as is, 42 Days): ≧6 Log 10 Bacteria/mL | Log 10 Anaerobic Sulfate Reducing Bacteria/mL ([1]; 100 ppm as is, 58 Days): ≧5 Log 10 Bacteria/mL | Log 10 Anaerobic Sulfate Reducing Bacteria/mL ([1]; 100 ppm as is, 90 Days): ≧5 Log 10 Bacteria/mL | Log 10 Anaerobic Sulfate Reducing Bacteria/mL ([1]; 200 ppm as is, 7 Days): 0 Log 10 Bacteria/mL | Log 10 Anaerobic Sulfate Reducing Bacteria/mL ([1]; 200 ppm as is, 14 Days): 0 Log 10 Bacteria/mL | Log 10 Anaerobic Sulfate Reducing Bacteria/mL ([1]; 200 ppm as is, 21 Days): 0 Log 10 Bacteria/mL | Log 10 Anaerobic Sulfate Reducing Bacteria/mL ([1]; 200 ppm as is, 28 Days): 0 Log 10 Bacteria/mL | Log 10 Anaerobic Sulfate Reducing Bacteria/mL ([1]; 200 ppm as is, 35 Days): ≧3 Log 10 Bacteria/mL | Log 10 Anaerobic Sulfate Reducing Bacteria/mL ([1]; 200 ppm as is, 42 Days): ≧6 Log 10 Bacteria/mL | Log 10 Anaerobic Sulfate Reducing Bacteria/mL ([1]; 200 ppm as is, 58 Days): ≧6 Log 10 Bacteria/mL | Log 10 Anaerobic Sulfate Reducing Bacteria/mL ([1]; 200 ppm as is, 90 Days): ≧6 Log 10 Bacteria/mL | Log 10 Anaerobic Sulfate Reducing Bacteria/mL [1, 4]: 0 Log 10 Bacteria/mL | Log 10 Anaerobic Sulfate Reducing Bacteria/mL [1, 5]: 0 Log 10 Bacteria/mL | Log 10 Anaerobic Sulfate Reducing Bacteria/mL [1, 6]: 0 Log 10 Bacteria/mL | Log 10 Anaerobic Sulfate Reducing Bacteria/mL [1, 7]: 0 Log 10 Bacteria/mL | Log 10 Anaerobic Sulfate Reducing Bacteria/mL [1, 8]: ≧3 Log 10 Bacteria/mL | Log 10 Anaerobic Sulfate Reducing Bacteria/mL [1, 9]: 5 Log 10 Bacteria/mL | Log 10 Anaerobic Sulfate Reducing Bacteria/mL [1, 10]: ≧6 Log 10 Bacteria/mL | Log 10 Anaerobic Sulfate Reducing Bacteria/mL [1, 11]: ≧6 Log 10 Bacteria/mL | control of SRB in frac pond water (summary in words) [1]: lost all control of SRB and AB after the 2nd challenge on day 28; also recorded: failed completely at all concentrations after challenging twice at 14 and 28 days contact time | Log 10 Anaerobic Acid Producing Bacteria/mL ([2]; 50 ppm as is, 7 Days): 0 Log 10 Bacteria/mL | Log 10 Anaerobic Acid Producing Bacteria/mL ([2]; 50 ppm as is, 14 Days): 0 Log 10 Bacteria/mL | Log 10 Anaerobic Acid Producing Bacteria/mL ([2]; 50 ppm as is, 21 Days): 1 Log 10 Bacteria/mL | Log 10 Anaerobic Acid Producing Bacteria/mL ([2]; 50 ppm as is, 28 Days): 0 Log 10 Bacteria/mL | Log 10 Anaerobic Acid Producing Bacteria/mL ([2]; 50 ppm as is, 35 Days): ≧3 Log 10 Bacteria/mL | Log 10 Anaerobic Acid Producing Bacteria/mL ([2]; 50 ppm as is, 42 Days): ≧6 Log 10 Bacteria/mL | Log 10 Anaerobic Acid Producing Bacteria/mL ([2]; 50 ppm as is, 58 Days): ≧6 Log 10 Bacteria/mL | Log 10 Anaerobic Acid Producing Bacteria/mL ([2]; 50 ppm as is, 90 Days): ≧5 Log 10 Bacteria/mL | Log 10 Anaerobic Acid Producing Bacteria/mL ([2]; 100 ppm as is, 7 Days): 0 Log 10 Bacteria/mL | Log 10 Anaerobic Acid Producing Bacteria/mL ([2]; 100 ppm as is, 14 Days): 0 Log 10 Bacteria/mL | Log 10 Anaerobic Acid Producing Bacteria/mL ([2]; 100 ppm as is, 21 Days): 0 Log 10 Bacteria/mL | Log 10 Anaerobic Acid Producing Bacteria/mL ([2]; 100 ppm as is, 28 Days): 0 Log 10 Bacteria/mL | Log 10 Anaerobic Acid Producing Bacteria/mL ([2]; 100 ppm as is, 35 Days): ≧3 Log 10 Bacteria/mL | Log 10 Anaerobic Acid Producing Bacteria/mL ([2]; 100 ppm as is, 42 Days): ≧6 Log 10 Bacteria/mL | Log 10 Anaerobic Acid Producing Bacteria/mL ([2]; 100 ppm as is, 58 Days): ≧6 Log 10 Bacteria/mL | Log 10 Anaerobic Acid Producing Bacteria/mL ([2]; 100 ppm as is, 90 Days): ≧6 Log 10 Bacteria/mL | Log 10 Anaerobic Acid Producing Bacteria/mL ([2]; 200 ppm as is, 7 Days): 0 Log 10 Bacteria/mL | Log 10 Anaerobic Acid Producing Bacteria/mL ([2]; 200 ppm as is, 14 Days): 1 Log 10 Bacteria/mL | Log 10 Anaerobic Acid Producing Bacteria/mL ([2]; 200 ppm as is, 21 Days): 0 Log 10 Bacteria/mL | Log 10 Anaerobic Acid Producing Bacteria/mL ([2]; 200 ppm as is, 28 Days): 0 Log 10 Bacteria/mL | Log 10 Anaerobic Acid Producing Bacteria/mL ([2]; 200 ppm as is, 35 Days): ≧3 Log 10 Bacteria/mL | Log 10 Anaerobic Acid Producing Bacteria/mL ([2]; 200 ppm as is, 42 Days): ≧5 Log 10 Bacteria/mL | Log 10 Anaerobic Acid Producing Bacteria/mL ([2]; 200 ppm as is, 58 Days): ≧6 Log 10 Bacteria/mL | Log 10 Anaerobic Acid Producing Bacteria/mL ([2]; 200 ppm as is, 90 Days): ≧6 Log 10 Bacteria/mL | Log 10 Anaerobic Acid Producing Bacteria/mL [2, 4]: 0 Log 10 Bacteria/mL | Log 10 Anaerobic Acid Producing Bacteria/mL [2, 5]: 0 Log 10 Bacteria/mL | Log 10 Anaerobic Acid Producing Bacteria/mL [2, 6]: 0 Log 10 Bacteria/mL | Log 10 Anaerobic Acid Producing Bacteria/mL [2, 7]: 0 Log 10 Bacteria/mL | Log 10 Anaerobic Acid Producing Bacteria/mL [2, 8]: ≧3 Log 10 Bacteria/mL | Log 10 Anaerobic Acid Producing Bacteria/mL [2, 9]: 4 Log 10 Bacteria/mL | Log 10 Anaerobic Acid Producing Bacteria/mL [2, 10]: ≧6 Log 10 Bacteria/mL | Log 10 Anaerobic Acid Producing Bacteria/mL [2, 11]: ≧6 Log 10 Bacteria/mL | control of AB in frac pond water (summary in words) [2]: lost all control of SRB and AB after the 2nd challenge on day 28 | ORP after 10 minutes of residence time [3]: increases nearly to the level of the DI H2O alone | ORP response upon initial addition of biocide [3]: does not significantly impact ORP

CN1CSC(=S)N(C)C1 [Thione, 3,5-dimethyl-1,3,5-thiadiazinane-2-thione]
control of SRB in frac pond water (summary in words) [1]: much more effective at inhibiting SRB and AB growth in frac water than the Glut and THPS treatments; also recorded: exceptional control over both the short and long term for SRB through 3 substantial challenges | control of AB in frac pond water (summary in words) [2]: much more effective at inhibiting SRB and AB growth in frac water than the Glut and THPS treatments
